Numbers after ± are expanded uncertainties.
Assay: activity coefficient (dimensionless); of the first substance listed, at infinite dilution; xn = mol fraction of the nth substance listed
Conditions: Liquid, Chromatography, x1 = 0

C=CCCC [1-pentene] + CCCCCC[N+]1(C)CCCC1.O=S(=O)([N-]S(=O)(=O)C(F)(F)F)C(F)(F)F
activity coefficient (303.16 K): 3.4 ± 0.15
activity coefficient (313.17 K): 3.37 ± 0.15
activity coefficient (323.15 K): 3.33 ± 0.15
activity coefficient (333.15 K): 3.31 ± 0.15

CCCCCCCCCC [decane] + CCCCCC[N+]1(C)CCCC1.O=S(=O)([N-]S(=O)(=O)C(F)(F)F)C(F)(F)F
activity coefficient (303.13 K): 28.1 ± 1.3
activity coefficient (313.17 K): 27 ± 1.2
activity coefficient (323.16 K): 25.1 ± 1.2
activity coefficient (333.16 K): 24.3 ± 1.1
activity coefficient (343.13 K): 23 ± 1.1

CCCCCCC [heptane] + CCCCCCCC[N+]1(C)CCCC1.O=S(=O)([N-]S(=O)(=O)C(F)(F)F)C(F)(F)F
activity coefficient (303.1 K): 6.9 ± 0.32
activity coefficient (313.15 K): 6.73 ± 0.31
activity coefficient (323.09 K): 6.54 ± 0.3
activity coefficient (333.13 K): 6.36 ± 0.29

CCCCCCC [heptane] + CCCCCC[N+]1(C)CCCC1.O=S(=O)([N-]S(=O)(=O)C(F)(F)F)C(F)(F)F
activity coefficient (303.16 K): 11.4 ± 0.52
activity coefficient (313.16 K): 10.8 ± 0.49
activity coefficient (323.15 K): 10.3 ± 0.47
activity coefficient (333.12 K): 9.89 ± 0.45

C=CCCCC [hex-1-ene] + CCCCCCCC[N+]1(C)CCCC1.O=S(=O)([N-]S(=O)(=O)C(F)(F)F)C(F)(F)F
activity coefficient (303.14 K): 3.11 ± 0.14
activity coefficient (313.13 K): 3.29 ± 0.15
activity coefficient (323.11 K): 3.22 ± 0.15
activity coefficient (343.11 K): 3.15 ± 0.14

C=CCCCC [hex-1-ene] + CCCCCC[N+]1(C)CCCC1.O=S(=O)([N-]S(=O)(=O)C(F)(F)F)C(F)(F)F
activity coefficient (303.16 K): 4.77 ± 0.22
activity coefficient (313.17 K): 4.63 ± 0.21
activity coefficient (323.15 K): 4.55 ± 0.21
activity coefficient (333.15 K): 4.45 ± 0.2

CCCCCC [hexane] + CCCCCCCC[N+]1(C)CCCC1.O=S(=O)([N-]S(=O)(=O)C(F)(F)F)C(F)(F)F
activity coefficient (303.16 K): 5.24 ± 0.24
activity coefficient (313.13 K): 5.05 ± 0.23
activity coefficient (323.17 K): 4.9 ± 0.22
activity coefficient (333.19 K): 4.8 ± 0.22

CCCCCC [hexane] + CCCCCC[N+]1(C)CCCC1.O=S(=O)([N-]S(=O)(=O)C(F)(F)F)C(F)(F)F
activity coefficient (303.15 K): 8.4 ± 0.39
activity coefficient (313.19 K): 7.85 ± 0.36
activity coefficient (323.16 K): 7.21 ± 0.33
activity coefficient (333.14 K): 6.57 ± 0.3

CCCCCCCCC [nonane] + CCCCCC[N+]1(C)CCCC1.O=S(=O)([N-]S(=O)(=O)C(F)(F)F)C(F)(F)F
activity coefficient (303.13 K): 21.4 ± 0.99
activity coefficient (313.17 K): 19.9 ± 0.92
activity coefficient (323.16 K): 18.8 ± 0.87
activity coefficient (333.16 K): 18.1 ± 0.84
activity coefficient (343.13 K): 17.1 ± 0.79

C=CCCCCCC [oct-1-ene] + CCCCCCCC[N+]1(C)CCCC1.O=S(=O)([N-]S(=O)(=O)C(F)(F)F)C(F)(F)F
activity coefficient (313.11 K): 5.53 ± 0.25
activity coefficient (323.14 K): 5.4 ± 0.25
activity coefficient (333.17 K): 5.27 ± 0.24
activity coefficient (343.21 K): 5.21 ± 0.24

C=CCCCCCC [oct-1-ene] + CCCCCC[N+]1(C)CCCC1.O=S(=O)([N-]S(=O)(=O)C(F)(F)F)C(F)(F)F
activity coefficient (303.14 K): 8.93 ± 0.41
activity coefficient (313.16 K): 8.61 ± 0.4
activity coefficient (323.37 K): 8.39 ± 0.38
activity coefficient (333.16 K): 8.2 ± 0.38

CCCCCCCC [octane] + CCCCCCCC[N+]1(C)CCCC1.O=S(=O)([N-]S(=O)(=O)C(F)(F)F)C(F)(F)F
activity coefficient (303.1 K): 8.78 ± 0.4
activity coefficient (313.15 K): 8.55 ± 0.39
activity coefficient (323.09 K): 8.39 ± 0.38
activity coefficient (333.13 K): 8.22 ± 0.38

CCCCCCCC [octane] + CCCCCC[N+]1(C)CCCC1.O=S(=O)([N-]S(=O)(=O)C(F)(F)F)C(F)(F)F
activity coefficient (303.16 K): 15.8 ± 0.73
activity coefficient (313.16 K): 14.7 ± 0.68
activity coefficient (323.15 K): 13.9 ± 0.64
activity coefficient (333.12 K): 13.3 ± 0.61

CCCCC [pentane] + CCCCCC[N+]1(C)CCCC1.O=S(=O)([N-]S(=O)(=O)C(F)(F)F)C(F)(F)F
activity coefficient (303.15 K): 5.66 ± 0.26
activity coefficient (313.19 K): 5.31 ± 0.24
activity coefficient (323.16 K): 4.8 ± 0.22
activity coefficient (333.14 K): 4.51 ± 0.21

— the NIST ThermoML archive (doi:10.1016/j.fluid.2008.11.013)
